Legend:
Experiment in all cases: relative viability (nuclei count vs DMSO), 5 days (fraction); higher = more cells survive
[1] = compound: COc1cc(-c2nn([C@H]3CC[C@H](N4CCN(C(C)=O)CC4)CC3)c3ncnc(N)c23)ccc1NC(=O)c1cc2ccccc2n1C
In short: (§1)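 Five library-drug doses spaced by √10 were pinned onto vehicle-anchored 1536-well plates of lung cancer cell lines that had been kept overnight at 37 °C. Cells went 5 days without medium change, then were fixed, permeabilised and Hoechst-stained together, imaged at 4× and counted by MetaXpress. Viability is the ratio of treated-well to vehicle-well nuclei, taken as a median over plates. Plates required control CV below 25% and at least one doubling.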

Midostaurin = compound: CO[C@@H]1[C@H](N(C)C(=O)c2ccccc2)C[C@H]2O[C@]1(C)n1c3ccccc3c3c4c(c5c6ccccc6n2c5c31)C(=O)NC4 [Midostaurin]
In short: as §1

Midostaurin + Foretinib = compound: CO[C@@H]1[C@H](N(C)C(=O)c2ccccc2)C[C@H]2O[C@]1(C)n1c3ccccc3c3c4c(c5c6ccccc6n2c5c31)C(=O)NC4 [Midostaurin] + COc1cc2c(Oc3ccc(NC(=O)C4(C(=O)Nc5ccc(F)cc5)CC4)cc3F)ccnc2cc1OCCCN1CCOCC1 [Foretinib] (partner 0.25 µM)
In short: (§2)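 After 5 days of treatment, lung cancer cells in 1536-well plates were fixed and stained in a single step (final 0.05% Triton X-100, 1% formaldehyde, 1 ug/ml Hoechst) and their nuclei counted on 4× images. Treatment had been applied by pin tool the day after seeding as one drug alone or as a fixed anchor-drug dose with five library-drug doses (not always all listed) in √10 steps. Relative viability is the nuclei count of treated wells divided by that of vehicle wells, and values are medians of duplicate plates.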

[2] = compound: COc1cc(-c2nn([C@H]3CC[C@H](N4CCN(C(C)=O)CC4)CC3)c3ncnc(N)c23)ccc1NC(=O)c1cc2ccccc2n1C + CC(=O)Nc1cccc(-n2c(=O)n(C3CC3)c(=O)c3c(Nc4ccc(I)cc4F)n(C)c(=O)c(C)c32)c1 [Trametinib] (partner 0.02 µM)
In short: as §2

Midostaurin + Navitoclax = compound: CO[C@@H]1[C@H](N(C)C(=O)c2ccccc2)C[C@H]2O[C@]1(C)n1c3ccccc3c3c4c(c5c6ccccc6n2c5c31)C(=O)NC4 [Midostaurin] + CC1(C)CCC(c2ccc(Cl)cc2)=C(CN2CCN(c3ccc(C(=O)NS(=O)(=O)c4ccc(N[C@H](CCN5CCOCC5)CSc5ccccc5)c(S(=O)(=O)C(F)(F)F)c4)cc3)CC2)C1 [Navitoclax] (partner 0.5 µM)
In short: as §2

Cell Line	relative viability ([1]; 0.0128 µM)	relative viability ([1]; 0.04048 µM)	relative viability ([1]; 0.128 µM)	relative viability ([1]; 1.28 µM)	relative viability (Midostaurin; 0.01 µM)	relative viability (Midostaurin; 0.03162 µM)	relative viability (Midostaurin; 0.1 µM)	relative viability (Midostaurin; 0.3162 µM)	relative viability (Midostaurin + Foretinib; first compound 0.01 µM)	relative viability (Midostaurin + Foretinib; first compound 0.03162 µM)	relative viability (Midostaurin + Foretinib; first compound 0.1 µM)	relative viability (Midostaurin + Foretinib; first compound 0.3162 µM)	relative viability ([2]; first compound 0.0128 µM)	relative viability ([2]; first compound 0.04048 µM)	relative viability ([2]; first compound 0.128 µM)	relative viability ([2]; first compound 1.28 µM)	relative viability (Midostaurin + Navitoclax; first compound 0.01 µM)	relative viability (Midostaurin + Navitoclax; first compound 0.03162 µM)	relative viability (Midostaurin + Navitoclax; first compound 0.1 µM)	relative viability (Midostaurin + Navitoclax; first compound 0.3162 µM)
NCI-H1755	1.12	0.983	0.937	0.938	0.983	0.983	0.962	0.977	0.944	0.848	0.787	0.628	0.907	0.651	0.769	0.745	0.966	0.927	0.828	0.627
NCI-H2023	1.02	1.13	0.923	0.906	1.07	0.893	0.922	0.59	0.856	0.984	0.686	0.631	0.402	0.445	0.585	0.454	1.07	0.898	0.92	0.903
NCI-H2009	1.01	0.861	0.927	0.973	0.972	0.904	0.961	0.939	1.22	1.09	0.88	1.16	0.251	0.252	0.236	0.195	1.16	1.14	1.03	1.15
